Measurements published in ChEMBL document CHEMBL1641509, “A PIM₂ analogue suppresses allergic airway disease” (Bioorg Med Chem, 2011).
Activity calls are given as the source filed them.

What was measured:
Assay type in all cases: functional, organism-based
Conditions in all cases: Lung
Mus musculus [1] = assay: Antiinflammatory activity against ovalbumin-induced airway allergic C57BL/6 mouse model assessed as decrease of macrophages in bronchoalveolar lavage fluid at 20 ug/mL administered intranasally after 28 days ovalbumin challenge measured on day 32
Mus musculus [2] = assay: Antiinflammatory activity against ovalbumin-induced airway allergic C57BL/6 mouse model assessed as reduction of recruitment of eosinophils in bronchoalveolar lavage fluid at 20 ug/mL administered intranasally after 28 days ovalbumin challenge measured on day 32
Mus musculus [3] = assay: Antiinflammatory activity against ovalbumin-induced airway allergic C57BL/6 mouse model assessed as decrease of lymphocytes in bronchoalveolar lavage fluid at 20 ug/mL administered intranasally after 28 days ovalbumin challenge measured on day 32

Measured: Activity

CCCCCCCCCCCCCCCCCC(=O)OC[C@H](COP(=O)(O)OC(CO[C@H]1O[C@H](CO)[C@@H](O)[C@H](O)[C@@H]1O)CO[C@H]1O[C@H](CO)[C@@H](O)[C@H](O)[C@@H]1O)OC(=O)CCCCCCCCCCCCCCCCC
active: Mus musculus [1] | Mus musculus [2] | Mus musculus [3]
